Test results published in patent US8026236B2, “6-phenyl-1H-imidazo[4,5-c]pyridine-4-carbonitrile derivatives” (N.V. Organon, priority 2009, dated 2011).

Biological target: recombinant human Cathepsin S (Homo sapiens, UniProt P25774)
Test: Cathepsin S assay procedure (inhibition of recombinant human Cathepsin S, fluorogenic substrate Z-Val-Val-Arg-AMC)
Assay type: biochemical
Details: pH5.5, 20 minutes, read-out: pIC50 (negative logarithm of the IC50 concentration) for inhibition of human cathepsin S (converted)
Protocol: To a 384 well microtitre plate is added 10 μl of a 1000 solution of test compound in assay buffer (100 mM sodium acetate pH5.5, 5 mM EDTA, 5 mM dithiothreitol) with 10% dimethylsulfoxide (DMSO), plus 200 of 2500 solution of the substrate Z-Val-Val-Arg-AMC (7-amido-coumarine derivative of the tripeptide N-benzyloxy-carbonyl-Val-Val-Arg-OH) in assay buffer and 45 μl of assay buffer. 25 μl of a 2 mg/l solution of activated recombinant human cathepsin S, in assay buffer, is then added to the well, yielding a final inhibitor concentration of 10 μM. Enzyme activity is determined by measuring the fluorescence of the liberated aminomethylcoumarin at […] using 390 nm excitation, at 20 minutes. Percentage enzyme activity is calculated by comparison of this activity to that of a solution containing no inhibitor. Compounds are subsequently subjected to a dose response curve analysis in order to determine IC50 values for active compounds (where IC50 is the concentration of test compound causing 50% inhibition of the enzymatic activity). Compounds of the invention typically have a pIC50 (negative logarithm of the IC50 concentration) for inhibition of human cathepsin S of more than 6. Most compounds of the invention have a pIC50 of more than 7, such as exemplified by the compounds of examples 1a, 1b, 2a, 7d, 12a, 14a, 14b, 14c, 14d, 14e, 14f, 14g, 14h, 14i, 17, 18.

recombinant human Cathepsin S, sequence (P25774 115-331): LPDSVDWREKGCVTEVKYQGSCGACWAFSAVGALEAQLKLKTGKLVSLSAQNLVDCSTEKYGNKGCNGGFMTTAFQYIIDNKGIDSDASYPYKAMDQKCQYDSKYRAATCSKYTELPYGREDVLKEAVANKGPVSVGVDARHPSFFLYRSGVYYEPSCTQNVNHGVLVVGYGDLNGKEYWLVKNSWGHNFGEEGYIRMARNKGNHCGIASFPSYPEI

## CC(=O)Nc1cccc(COc2ccc(-c3cc4c(ncn4C)c(C#N)n3)cc2C(F)(F)F)c1 [Example 17]
  IC50: < 100 nM
